Data set [1] is described as follows: Pharmacokinetic parameters in Swiss mice after oral administration. To be noted: mouse, in vivo, 1 mg/kg p.o.; for Cmax: n = 4; for AUC(0-t): n = 4, read-out: AUC(0-48 h). The source says:
Moreover, preferred compounds of the present invention also display an outstanding bioavailability.

Data set [2] concerns circulating lymphocytes. As to the kind of experiment: In vivo lymphopenia ED50 in mice. To be noted: Mus musculus, Lymphocyte, read-out: ED50 (EDG1) (In mice). How it is done: (§1) b) Assessment of Lymphopenia
(§2) Lymphopenia was assessed in vivo. Experiments were done in non-fasted/fasted Swiss mice and/or: Sprague Dawley rats, Wistar rats, Beagle dogs, Cynomolgus monkeys. Compounds were administered orally in suspension in carboxymethyl-cellulose 0.5-1% in water (W/V). Blood was taken on anesthetized/non anaesthetized animal (4% isoflurane) and samples collected in EDTA-containing vacuum tubes from 1 h 30 to 72 hours post administration for lymphopenia measurement.
(§3) After 10 minutes stirring, cells were counted using ABC Vet haemocytometer (Scil vet animal Care) for rodent and dog or ADVIA 120 hematology analyzer for monkeys. Pharmacodynamic effect was measured by the decrease in circulating lymphocytes by test item treatment in comparison with haematological parameters of control animals or versus predosing in the same animals.

The next data set has as its target EDG3 (Homo sapiens, UniProt Q99500). The experiment in a line: 35S-GTPγS binding assay, EDG3 (S1P3). The class given is biochemical. To be noted: Table 1a. The procedure:
(§4) a) 35S-GTPγS Binding Assay GTP-γ-^35S binding was performed using […]15 μg protein of cell membranes suspended in 50 mM tris-HCl pH 7.5 containing 10 mM MgCl2, 100 mM NaCl and 10 μM GDP. The radioligand was 0.025 nM [^35S] GTP-γ-S and non specific binding determined in the presence of 10 μM non-radioactive GTP-γ-S. […] The maximal stimulation elicited by S1P was taken as a reference to define full or partial agonism and calculate the intrinsic activity (i.a.) of compounds.
For orientation: GTPγS resists hydrolysis and so accumulates on activated G proteins.

Another data set addresses hERG channel (Homo sapiens, UniProt Q12809). The experiment in a line: biochemical. How it is done:
c) Evaluation of Activity for hERG Blockade Liability
HEK293 cells were stably transfected with the human hERG receptor gene. Binding assays were performed using 5 μg of cell membranes expressing hERG channel resuspended in 10 mM Hepes pH 7.4, 135 mM NaCl, 60 mM DL-Aspartic Acid Potassium, 1 mM EGTA, 0.8 mM MgCl2, 10 mM (D+) Glucose, 0.01% BSA, in a final volume of 200 μL. For [^3H] […] Non specific binding was estimated in the presence of 1 μM Astemizole. The reaction was terminated by filtration through Durapore BV 1.2 μm filters pre-soaked in 3% polyethyleneimine 10 minutes at room temperature. Filters were rinsed 2 times with 250 μL of ice cold 25 mM Tris-HCl pH 7.4 buffer. The filter-bound radioactivity was measured in a liquid scintillation counter with 50 μL of scintillation fluid. [^3H]
The hERG binding investigated by use of [^3H]

For the next data set, the target named is EDG-1 (Homo sapiens, UniProt P21453). As to the kind of experiment: 35S-GTPγS binding assay, EDG1 (S1P1). The class given is biochemical. On the set-up: expressed in transfected cells. How it is done:
as §4

In another data set the target is EDG5 (Homo sapiens, UniProt O95136). The experiment in a line: 35S-GTPγS binding assay, EDG5 (S1P2). The class given is biochemical. To be noted: Table 1a. How it is done:
as §4

Data set [3] concerns circulating lymphocytes. As to the kind of experiment: Assessment of lymphopenia in rats. The class given is in vivo. To be noted: for Lymphopenia in rats % lymphopenia at given dose at 24 hrs: 0.3 mpk. The procedure:
as §1, §2, §3

[4] abbreviates: Table 1a, read-out: EC50 (nM) EDG1.
The mark [5] stands for this setting: comparative examples table, read-out: EDG1 EC50.

Where a name gives a salt, the structure may show the parent alone. Read-outs that look alike come from different tables or passages of the source.

Chain of EDG-1 (P21453 whole entry): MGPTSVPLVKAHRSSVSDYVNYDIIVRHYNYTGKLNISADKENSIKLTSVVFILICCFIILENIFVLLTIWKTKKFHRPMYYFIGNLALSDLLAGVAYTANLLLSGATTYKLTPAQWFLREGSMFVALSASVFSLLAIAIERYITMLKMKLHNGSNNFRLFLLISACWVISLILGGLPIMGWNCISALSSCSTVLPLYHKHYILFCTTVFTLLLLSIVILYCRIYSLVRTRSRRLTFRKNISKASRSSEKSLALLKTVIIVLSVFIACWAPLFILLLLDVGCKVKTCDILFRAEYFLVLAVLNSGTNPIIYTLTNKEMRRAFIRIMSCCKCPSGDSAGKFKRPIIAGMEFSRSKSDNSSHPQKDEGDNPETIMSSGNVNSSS
Chain of hERG channel (Q12809 whole entry): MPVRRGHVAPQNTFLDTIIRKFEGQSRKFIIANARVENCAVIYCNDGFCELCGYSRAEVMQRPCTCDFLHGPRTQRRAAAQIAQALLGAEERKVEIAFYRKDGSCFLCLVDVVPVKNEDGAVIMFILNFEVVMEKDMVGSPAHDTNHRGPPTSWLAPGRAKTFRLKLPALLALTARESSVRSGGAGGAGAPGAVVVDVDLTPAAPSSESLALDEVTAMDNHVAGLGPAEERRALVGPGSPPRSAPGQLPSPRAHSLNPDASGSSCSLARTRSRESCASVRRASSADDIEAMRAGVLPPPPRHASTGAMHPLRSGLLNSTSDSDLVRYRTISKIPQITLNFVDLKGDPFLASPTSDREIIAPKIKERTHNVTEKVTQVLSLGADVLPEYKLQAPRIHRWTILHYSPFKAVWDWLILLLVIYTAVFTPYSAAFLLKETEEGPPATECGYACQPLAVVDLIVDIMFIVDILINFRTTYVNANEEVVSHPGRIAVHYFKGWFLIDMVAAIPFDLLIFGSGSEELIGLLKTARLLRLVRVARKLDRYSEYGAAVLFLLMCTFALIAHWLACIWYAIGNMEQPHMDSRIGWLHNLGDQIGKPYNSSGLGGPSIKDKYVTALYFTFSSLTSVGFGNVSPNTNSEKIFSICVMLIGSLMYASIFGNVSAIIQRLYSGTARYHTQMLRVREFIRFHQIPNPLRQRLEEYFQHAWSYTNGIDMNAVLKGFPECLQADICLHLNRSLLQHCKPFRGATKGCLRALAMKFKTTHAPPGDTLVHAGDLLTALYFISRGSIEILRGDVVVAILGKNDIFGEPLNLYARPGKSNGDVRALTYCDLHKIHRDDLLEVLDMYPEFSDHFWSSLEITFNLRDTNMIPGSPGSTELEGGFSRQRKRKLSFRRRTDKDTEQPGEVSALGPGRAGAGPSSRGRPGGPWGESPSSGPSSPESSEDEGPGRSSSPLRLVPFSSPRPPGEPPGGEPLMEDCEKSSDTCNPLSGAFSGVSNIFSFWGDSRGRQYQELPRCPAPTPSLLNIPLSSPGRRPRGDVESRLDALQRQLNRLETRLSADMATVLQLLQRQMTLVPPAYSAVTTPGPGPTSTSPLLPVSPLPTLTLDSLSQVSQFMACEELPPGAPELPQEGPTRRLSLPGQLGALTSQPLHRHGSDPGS
Chain of EDG3 (Q99500 whole entry, species assumed): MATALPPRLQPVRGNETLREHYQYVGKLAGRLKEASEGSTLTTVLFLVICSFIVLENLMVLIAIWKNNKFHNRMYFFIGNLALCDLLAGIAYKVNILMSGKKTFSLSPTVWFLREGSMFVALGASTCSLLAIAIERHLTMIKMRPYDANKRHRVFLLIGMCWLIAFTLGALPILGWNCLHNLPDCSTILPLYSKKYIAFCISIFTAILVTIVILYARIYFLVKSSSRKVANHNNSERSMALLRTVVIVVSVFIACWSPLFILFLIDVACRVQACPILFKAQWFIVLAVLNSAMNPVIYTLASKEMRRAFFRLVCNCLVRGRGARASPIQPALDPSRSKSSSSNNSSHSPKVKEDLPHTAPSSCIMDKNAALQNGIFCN
Chain of EDG5 (O95136 whole entry, species assumed): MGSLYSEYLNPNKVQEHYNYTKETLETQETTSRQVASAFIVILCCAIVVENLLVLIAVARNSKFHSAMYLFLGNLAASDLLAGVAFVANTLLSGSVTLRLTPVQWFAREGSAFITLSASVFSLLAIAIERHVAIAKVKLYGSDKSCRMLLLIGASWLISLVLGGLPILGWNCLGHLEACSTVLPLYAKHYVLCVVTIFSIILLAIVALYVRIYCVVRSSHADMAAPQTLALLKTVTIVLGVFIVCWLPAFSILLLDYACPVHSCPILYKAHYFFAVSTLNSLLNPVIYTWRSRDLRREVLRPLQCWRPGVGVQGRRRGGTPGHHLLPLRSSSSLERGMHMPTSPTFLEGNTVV

`CC(C)Cc1ccc(-c2nc(-c3ccc(CN4CC(C(=O)O)C4)cc3)no2)cc1` [Comparative compound 5, reference compound]: in data set [1], the Cmax was 495 ng/mL and the AUC(0-t) was 4530 ng·h/mL.

With `Cl.O=C(O)C1(C(=O)O)CCN(Cc2ccc(-c3noc(-c4ccc(-c5ccccc5)c(F)c4)n3)cc2)CC1` [Comparative example 6, reference compound], in the data set with circulating lymphocytes [2], the ED50 turned out to be 0.4 mg/kg.

Turning to `CC(C)Cc1ccc(-c2nc(-c3ccc(CN4CCC(C(=O)O)(C(=O)O)CC4)cc3)no2)cc1` [Comparative example 7, reference compound], the ED50 in the data set with circulating lymphocytes [2] was determined as 1.8 mg/kg.

As for `Cl.O=C(O)C1(C(=O)O)CCN(Cc2ccc(-c3noc(-c4ccc(C5CCCCC5)cc4)n3)cc2)CC1` [Comparative example 8, reference compound], in the data set on circulating lymphocytes [2], the ED50 worked out at 10 mg/kg.

For `CC1(C(=O)O)CCN(Cc2ccc(-c3noc(-c4ccc(C5CCCCC5)c(Cl)c4)n3)cc2)CC1` [Example 1, 1-{4-[5-(3-chloro-4-cyclohexylphenyl)-[1,2,4]-oxadiazol-3-yl]benzyl}-4-methylpiperidine-4-carboxylic acid], the EC50 was more than 1000 nM at EDG3; less than 1 nM at EDG-1 (setting [4]); less than 1 nM on EDG-1 (Table 1b, read-out: EDG1 EC50); more than 1000 nM on EDG5. In addition, the Ki at hERG channel is more than 10000 nM.

Take `CC(C)Cc1ccc(-c2nc(-c3ccc(CN4CCC(C)(C(=O)O)CC4)cc3)no2)cc1Cl` [Example 2, 1-{4-[5-(3-chloro-4-isobutylphenyl)-[1,2,4]-oxadiazol-3-yl]benzyl}-4-methylpiperidine-4-carboxylic acid, tert-butylamine salt]: in the data set with circulating lymphocytes [3] (Sprague-Dawley female), the “Lymphopenia in rats % lymphopenia at given dose at 24 hrs” value is 76% (0.3 mpk). The same compound had a Ki on hERG channel of more than 10000 nM. Moreover, the half-maximal effective concentration (EC50) on EDG-1 (setting [4]) is less than 1 nM; at EDG-1 (Table 1b, read-out: EDG1 EC50), less than 1 nM.

On to `CC(C)Cc1ccc(-c2nc(-c3ccc(CN4CCC(C)(C(=O)O)CC4)cc3)no2)cc1Cl` [Example 3, 1-{4-[5-(3-chloro-4-isobutylphenyl)-[1,2,4]-oxadiazol-3-yl]benzyl}-4-methylpiperidine-4-carboxylic acid], for which the ED50 with circulating lymphocytes [2] was 0.2 mg/kg. In data set [1], the Cmax came out at 798 ng/mL and the AUC(0-t) was determined as 13100 ng·h/mL.

As for `CC1(C(=O)O)CCN(Cc2ccc(-c3noc(-c4ccc(C5CCCC5)c(Cl)c4)n3)cc2)CC1` [Example 7, 1-{4-[5-(3-chloro-4-cyclopentylphenyl)-[1,2,4]-oxadiazol-3-yl]benzyl}-4-methylpiperidine-4-carboxylic acid], the concentration giving a half-maximal response (EC50) on EDG3 is 581 nM; on EDG-1 (setting [4]), less than 1 nM; at EDG-1 (Table 1b, read-out: EDG1 EC50), less than 1 nM; at EDG5, more than 1000 nM. At hERG channel, this compound registered an inhibition constant (Ki) of more than 10000 nM.

`CC1(C(=O)O)CCN(Cc2ccc(-c3noc(-c4ccc(-c5ccccc5)c(Cl)c4)n3)cc2)CC1` [Example 8, 1-{4-[5-(2-Chlorobiphenyl-4-yl)-[1,2,4]-oxadiazol-3-yl]benzyl}-4-methylpiperidine-4-carboxylic acid]: in the data set with circulating lymphocytes [2], the ED50 is 0.1 mg/kg. For the same compound, the EC50 at EDG-1 (Table 1b, read-out: EDG1 EC50) is less than 1 nM.

With `COCC1(C(=O)O)CCN(Cc2ccc(-c3noc(-c4ccc(C5CCCC5)c(Cl)c4)n3)cc2)CC1` [Example 9, 1-{4-[5-(3-chloro-4-cyclopentylphenyl)-[1,2,4]-oxadiazol-3-yl]benzyl}-4-methoxymethylpiperidine-4-carboxylic acid tert-butyl amine salt], the EC50 at EDG3 was more than 1000 nM; at EDG-1 (setting [4]) it was less than 1 nM; on EDG-1 (Table 1b, read-out: EDG1 EC50), less than 1 nM; on EDG5, more than 1000 nM. For the same compound, the Ki on hERG channel was more than 10000 nM.

Consider `COCC1(C(=O)O)CCN(Cc2ccc(-c3noc(-c4ccc(C5CCCCC5)c(Cl)c4)n3)cc2)CC1` [Example 10, 1-{4-[5-(3-chloro-4-cyclohexylphenyl)-[1,2,4]-oxadiazol-3-yl]benzyl}-4-methoxymethylpiperidine-4-carboxylic acid tert-butyl amine salt], for which the EC50 at EDG3 is 610 nM; on EDG-1 (setting [4]), less than 1 nM; on EDG-1 (Table 1b, read-out: EDG1 EC50) it was less than 1 nM. Further, the ED50 with circulating lymphocytes [2] is 0.2 mg/kg. This compound yielded a Ki at hERG channel of more than 10000 nM.

Turning to `CCC1(C(=O)O)CCN(Cc2ccc(-c3noc(-c4ccc(CC(C)C)c(Cl)c4)n3)cc2)CC1` [Example 11, 1-{4-[5-(3-chloro-4-isobutylphenyl)-[1,2,4]-oxadiazol-3-yl]benzyl}-4-ethylpiperidine-4-carboxylic acid tert-butyl amine salt], the “Lymphopenia in rats % lymphopenia at given dose at 24 hrs” value with circulating lymphocytes [3] (Wistar female) is reported as 75% (0.3 mpk). The half-maximal effective concentration (EC50) was 198 nM at EDG3; less than 1 nM on EDG-1 (setting [4]); less than 1 nM at EDG-1 (Table 1b, read-out: EDG1 EC50); more than 1000 nM on EDG5. The Ki at hERG channel was more than 10000 nM.

Consider `C=CCC1(C(=O)O)CCN(Cc2ccc(-c3noc(-c4ccc(CC(C)C)c(Cl)c4)n3)cc2)CC1` [Example 12, 4-allyl-1-{4-[5-(3-chloro-4-isobutylphenyl)-[1,2,4]-oxadiazol-3-yl]benzyl}piperidine-4-carboxylic acid tert-butyl amine salt], for which the “Lymphopenia in rats % lymphopenia at given dose at 24 hrs” value in the data set on circulating lymphocytes [3] (Wistar female) is listed as 66% (0.3 mpk). For the same compound, the EC50 on EDG3 is more than 1000 nM; at EDG-1 (setting [4]) it was less than 1 nM; on EDG-1 (Table 1b, read-out: EDG1 EC50) it was less than 1 nM; on EDG5, more than 1000 nM. Moreover, the Ki on hERG channel was more than 10000 nM.

`CCCC1(C(=O)O)CCN(Cc2ccc(-c3noc(-c4ccc(CC(C)C)c(Cl)c4)n3)cc2)CC1` [Example 13, 1-{4-[5-(3-chloro-4-isobutylphenyl)-[1,2,4]-oxadiazol-3-yl]benzyl}-4-propylpiperidine-4-carboxylic acid tert-butyl amine salt]: the EC50 on EDG3 is more than 1000 nM; at EDG-1 (setting [4]) it was less than 1 nM; on EDG-1 (Table 1b, read-out: EDG1 EC50), less than 1 nM; at EDG5, more than 1000 nM. Further, at hERG channel, the Ki is more than 10000 nM.

Consider `COCCOCC1(C(=O)O)CCN(Cc2ccc(-c3noc(-c4ccc(CC(C)C)c(Cl)c4)n3)cc2)CC1` [Example 14, 1-{4-[5-(3-chloro-4-isobutylphenyl)-[1,2,4]-oxadiazol-3-yl]benzyl}-4-(2-methoxyethoxymethyl)piperidine-4-carboxylic acid tert-butyl amine salt], for which, in the data set on circulating lymphocytes [3] (Wistar male), the “Lymphopenia in rats % lymphopenia at given dose at 24 hrs” value is on record as 72% (0.3 mpk). For the same compound, the EC50 at EDG3 is more than 1000 nM; on EDG-1 (setting [4]) it was less than 1 nM; at EDG5 it was more than 1000 nM. Besides, the ED50 with circulating lymphocytes [2] was 0.2 mg/kg. This compound also yielded a Cmax in data set [1] of 843 ng/mL. The AUC(0-t) in data set [1] was found to be 9240 ng·h/mL. At hERG channel, this compound returned a Ki of more than 10000 nM.

Consider `CC(C)Cc1ccc(-c2nc(-c3ccc(CN4CCC(CO)(C(=O)O)CC4)cc3)no2)cc1Cl` [Example 15, 1-{4-[5-(3-chloro-4-isobutylphenyl)-[1,2,4]-oxadiazol-3-yl]benzyl}-4-hydroxymethylpiperidine-4-carboxylic acid tert-butyl amine salt], for which the “Lymphopenia in rats % lymphopenia at given dose at 24 hrs” value in the data set with circulating lymphocytes [3] (Sprague-Dawley female) is given as 69% (0.3 mpk). Also, the EC50 is more than 1000 nM on EDG3; less than 1 nM on EDG-1 (setting [4]); less than 1 nM on EDG-1 (Table 1b, read-out: EDG1 EC50); more than 1000 nM on EDG5. The compound also had a Ki on hERG channel of more than 10000 nM.

For the compound `CC(C)Cc1ccc(-c2nc(-c3ccc(CN4CCC(C(=O)O)CC4)cc3)no2)cc1.Cl` [compound 2], in the data set on circulating lymphocytes [3], the “Lymphopenia in rats % lymphopenia at 1 mpk/p.o dose 8 Hrs” value is reported as −25% and the “Lymphopenia in rats % lymphopenia at 1 mpk/p.o dose 24 Hrs” value is reported as −101%. In addition, on EDG-1 (setting [5]), the EC50 came out at 57.2 nM.

For the compound `CC(C)Cc1ccc(-c2nc(-c3ccc(CN4CCC[C@@H](C(=O)O)C4)cc3)no2)cc1` [compound 3], in the data set on circulating lymphocytes [3], the “Lymphopenia in rats % lymphopenia at 1 mpk/p.o dose 8 Hrs” value is given as −24% and the “Lymphopenia in rats % lymphopenia at 1 mpk/p.o dose 24 Hrs” value is recorded as −58%. Moreover, the EC50 on EDG-1 (setting [5]) was found to be 56.6 nM.

`Cl.O=C(O)C1CCN(Cc2ccc(-c3noc(-c4ccc(C5CCCCC5)cc4)n3)cc2)CC1` [compound 4]: in the data set on circulating lymphocytes [3], the “Lymphopenia in rats % lymphopenia at 1 mpk/p.o dose 8 Hrs” value is 2% and the “Lymphopenia in rats % lymphopenia at 1 mpk/p.o dose 24 Hrs” value was −57%. The half-maximal effective concentration (EC50) at EDG-1 (setting [5]) was 13.9 nM.

A word on the Cmax: it is the peak of the concentration-time curve. Broadly, the ED50 is the dose at which the effect has come halfway, by size or by number of responders. As usually defined, the EC50 is the concentration at which the effect is half-maximal. What is called Ki is the dissociation constant of the complex between target and ligand, obtained from inhibition or displacement. Lower therefore signals higher affinity.

(Values after patent US9266867B2, “Piperidinyl monocarboxylic acids as S1P1 receptor agonists” (BIOPROJET, priority 2011, dated 2016).)
